# Reference: publication PMC9250534, “Synthesis and direct assay of large macrocycle diversities by combinatorial late-stage modification at picomole scale” (Nature Communications, 2022)
# Numbered stars: 1 amine (or outer) side, 2 acyl side, 3 side chain; on linkers, the order of the positions; unused ones are H or OH. Bridge positions count the residues as written; N and C are the ends. Square brackets hold non-standard residues; d marks the D form. Peptide text beside a SMILES is read from it. * marks the point of attachment. ξ: configuration not given here. ξPro(4ξ-NHCOC6H4-4-Cl) = O=C(NC1CNC(C(=O)O)C1)c1ccc(Cl)cc1; Isoxazole3carbonyl(5-Me) = Cc1cc(C(=O)*)no1; Nicotinoyl(6-OMe) = COc1ccc(C(=O)*)cn1; Benzoyl(4-Cl) = O=C(c1ccc(Cl)cc1)*; Phenoxyacetyl = O=C(COc1ccccc1)*; Pentanoyl(4-Me) = CC(C)CCC(=O)*; X14 = O=C(C1(c2ccccc2)CCCCC1)*; Cysteamide = C(CS[*:3])N[*:1]; MeOSuc = COC(=O)CCC(=O)*; Api = NC1(C(=O)O)CCNCC1; Dap = NC[C@H](N)C(=O)O; Mpa = O=C(O)CCS
# Tests used:
# thrombin = target: T1, thrombin (Homo sapiens, UniProt P00734); assay: Thrombin inhibition screen of crude macrocycle reactions (residual thrombin activity, fluorogenic substrate Z-Gly-Gly-Arg-AMC); type: biochemical; settings: 10 µM macrocycle concentration; for percent residual thrombin activity: crude reactions, Library 1a-l, scaffold AA1-AA2-AA3 combined with 1-16 or '-'; for % thrombin activity, Original screen / % thrombin activity, Repeat screen: macrocycles containing acid 14, crude reaction; for % thrombin activity, Repeat screen: replicate reaction and screen
# T1 construct: consists of two polypeptide chains of 36 (light chain) and 259 amino acid
# Method: As a proof-of-concept, we screened the macrocycle library for inhibitors against thrombin, which is the central blood coagulation protease and an important therapeutic target. We conducted the screen for thrombin-inhibiting macrocycles in 384-well reaction plates. Briefly, each well contained a unique macrocycle (10 μM), 5 μL of thrombin (2 nM final conc.), and subsequently, 5 µL of a fluorogenic substrate to measure the residual thrombin activity and the extent of protease inhibition.
# The assays were performed in 384-well plates using Tris buffer at pH 7.4 (100 mM Tris-Cl, 150 mM NaCl, 10 mM MgCl2, 1 mM CaCl2, 0.1% w/v BSA, 0.01% v/v Triton-X100, and 0.6% v/v DMSO) using thrombin at a final concentration of 2 nM and the fluorogenic substrate Z-Gly-Gly-Arg-AMC at a final concentration of 50 μM. Thrombin (5 μL, 6 nM) in the Tris-Cl buffer described above was added to each peptide using a BioTek MultiFlo microplate dispenser, and incubated for 10 min at room temperature. […] Data was collected and exported using the Tecan Infinite M200 Pro instrument software. […] For the negative controls (20 wells containing DMSO but no macrocycle), an average slope was calculated. The percent of thrombin inhibition was calculated by dividing the slopes and multiplying the results by 100.
# MDM2 = MDM2 (Homo sapiens, UniProt Q00987); assay: MDM2 binding screen: displacement of fluorescent p53 peptide probe FP53 (fluorescence polarization); settings: for fraction fluorescent probe displaced, Screen: initial screen; for fraction fluorescent probe displaced, Screen / fraction fluorescent probe displaced, Replicate: crude macrocycle reactions; for fraction fluorescent probe displaced: 10 µM macrocycle concentration, crude acylated macrocycle (scaffold Mpa-AA1-AA2-AA3 x carboxylic acid), p53-based fluorescent peptide, human MDM2
# Sequence of MDM2 (Q00987 whole entry, the tested form may be a part): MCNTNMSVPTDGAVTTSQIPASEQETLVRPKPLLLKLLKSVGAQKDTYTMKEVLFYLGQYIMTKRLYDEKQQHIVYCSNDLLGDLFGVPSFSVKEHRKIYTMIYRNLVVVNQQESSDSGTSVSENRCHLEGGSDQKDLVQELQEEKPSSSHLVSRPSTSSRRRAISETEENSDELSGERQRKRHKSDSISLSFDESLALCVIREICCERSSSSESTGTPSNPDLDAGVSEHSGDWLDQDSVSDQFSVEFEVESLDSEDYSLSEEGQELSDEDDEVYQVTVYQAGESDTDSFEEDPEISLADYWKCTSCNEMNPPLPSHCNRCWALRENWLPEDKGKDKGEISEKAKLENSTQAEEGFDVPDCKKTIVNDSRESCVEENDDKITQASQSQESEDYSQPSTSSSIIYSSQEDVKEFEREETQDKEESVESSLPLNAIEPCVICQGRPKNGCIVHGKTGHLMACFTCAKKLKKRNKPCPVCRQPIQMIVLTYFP
# Summary of the method: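 Single-point screen: one fluorescence anisotropy reading at 25 °C (485 nm excitation, 535 nm emission) per macrocycle. Crude macrocycle reactions, final 10 µM, were scored for displacing the fluorescent p53 peptide from human MDM2.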
structure (smiles),measurement,setting,value
NCCCC[C@@H]1NC(=O)C2(CC2)CNC(=O)[C@H](Cc2c[nH]c3ccccc23)NC(=O)CCSSCCNC1=O [W-B6-D1/-],percent residual thrombin activity,thrombin,87.3276%
O=C1CCSSCCNC(=O)[C@H](Cc2c[nH]c3ccccc23)NC(=O)c2ccc(cc2)CNC(=O)[C@H](CNC(=O)c2ccc(Cl)s2)N1 [X D3 B3 W],"% thrombin activity, Original screen",thrombin,68.7%
same,"% thrombin activity, Repeat screen",thrombin,73.3%
O=C1CCSSCCNC(=O)[C@H](Cc2c[nH]c3ccccc23)NC(=O)[C@H](CCCCNC(=O)c2ccc(Cl)s2)NC(=O)c2cccc(c2)CN1 [B5-D1-W/14],percent residual thrombin activity,thrombin,107.115%
CC(C)C1NC(=O)C(NC(=O)c2ccc(Cl)s2)CSSCCNC(=O)c2cccc(c2)CNC(=O)CNC1=O (centres unmarked) [C v G B5],"% thrombin activity, Original screen",thrombin,111.1%
same,"% thrombin activity, Repeat screen",thrombin,111.8%
O=C1CCSSCCNC(=O)[C@H](CCCCNC(=O)c2ccco2)NC(=O)c2cccc(c2)CNC(=O)[C@H](CO)N1 [S-B5-D1/16],percent residual thrombin activity,thrombin,112.778%
O=C1CCNC(=O)[C@H](Cc2c[nH]cn2)NC(=O)CCSSCCNC(=O)[C@H](CCCNC(=O)c2ccco2)N1 [H-B2-D2/16],percent residual thrombin activity,thrombin,110.75%
COc1ccc(C(=O)NCCC[C@@H]2NC(=O)[C@H](CC(C)C)NC(=O)CCNC(=O)CCSSCCNC2=O)cn1 [B2-L-D2/10],percent residual thrombin activity,thrombin,110.801%
CC[C@H](C)[C@@H]1NC(=O)CCSSCCNC(=O)[C@H]2CCCN(C2)C(=O)[C@H](CCCCNC(=O)c2c[nH]c(=O)[nH]c2=O)NC1=O [I-D1-B4/11],percent residual thrombin activity,thrombin,113.791%
CC(C)CC(=O)NCCCC[C@@H]1NC(=O)CCSSCCNC(=O)[C@H](CO)NC(=O)c2ccc(cc2)CNC1=O [D1-B3-S/8],percent residual thrombin activity,thrombin,103.332%
CC[C@H](C)[C@@H]1NC(=O)CCSSCCNC(=O)[C@H](CCCCN)NC(=O)c2cccc(c2)CNC1=O [I-B5-D1/-],percent residual thrombin activity,thrombin,103.325%
O=C1CCSSCCNC(=O)[C@H]2CCCN(C2)C(=O)[C@H](CCCCNC(=O)c2c[nH]c(=O)[nH]c2=O)NC(=O)[C@H](Cc2ccc(O)cc2)N1 [Y-D1-B4/11],percent residual thrombin activity,thrombin,107.832%
C[C@H]1NC(=O)CCSSCCNC(=O)c2cccc(c2)CNC(=O)[C@H](CCCCNC(=O)c2ccc(Cl)s2)NC1=O [a-D1-B5/14],percent residual thrombin activity,thrombin,102.51%
O=C(Cc1c[nH]c2ccccc12)NCCC[C@@H]1NC(=O)CCSSCCNC(=O)[C@H](Cc2ccc(O)cc2)NC(=O)c2cccc(c2)CNC1=O [D2-B5-Y/12],percent residual thrombin activity,thrombin,99.266%
COc1ccc(C(=O)NCCCC[C@@H]2NC(=O)[C@@H]3CCCN3C(=O)CCSSCCNC(=O)[C@@H](C(C)C)NC2=O)cn1 [B1-D1-v/10] ([Mpa]PK(Nicotinoyl(6-OMe))[dV]-Cysteamide; disulfide 1-C),percent residual thrombin activity,thrombin,107.398%
NC(=O)CCC1NC(=O)C2CC(NC(=O)c3ccc(Cl)s3)CN2C(=O)CCSSCCNC(=O)c2ccc(cc2)CNC1=O (centres unmarked) [X D5 Q B3],"% thrombin activity, Original screen",thrombin,94.5%
same,"% thrombin activity, Repeat screen",thrombin,101.1%
O=C1CCSSCCNC(=O)C2CC(NC(=O)c3ccc(Cl)s3)CN2C(=O)CCNC(=O)C(Cc2ccccc2)N1 (centres unmarked) [X f B2 D5],"% thrombin activity, Original screen",thrombin,95.3%
same,"% thrombin activity, Repeat screen",thrombin,101.2%
NCCCC[C@@H]1NC(=O)c2cccc(c2)CNC(=O)[C@H](Cc2cnc[nH]2)NC(=O)CCSSCCNC1=O [H-B5-D1/-],percent residual thrombin activity,thrombin,101.253%
O=C(NC1CC2C(=O)N3CCCC3C(=O)NC(Cc3c[nH]c4ccccc34)C(=O)NCCSSCCC(=O)N2C1)c1ccc(Cl)cc1 (centres unmarked) [X D5 B1 W Acid 25] ([Mpa][ξPro(4ξ-NHCOC6H4-4-Cl)]PW-Cysteamide; disulfide 1-C; configuration not given here),"fraction fluorescent probe displaced, Screen",MDM2; Acid 25,0.25
same,"fraction fluorescent probe displaced, Replicate",MDM2; Acid 25,0.15
O=C1CCSSCCNC(=O)C2(CCN(C(=O)c3ccc(Cl)cc3)CC2)NC(=O)[C@@H]2CCCN2C(=O)[C@H](Cc2ccccc2)N1 [X F B1 D6 Acid 25] ([Mpa]FP[Api](Benzoyl(4-Cl))-Cysteamide; disulfide 1-C),"fraction fluorescent probe displaced, Screen",MDM2; Acid 25,0.22
same,"fraction fluorescent probe displaced, Replicate",MDM2; Acid 25,0.10
O=C1NCCSSCCC(=O)N2CCN(C(=O)C=Cc3ccccc3)CC2C(=O)NC(Cc2ccccc2)C(=O)NCc2cccc1c2 (centres unmarked) [X D7 F B5 Acid 91],"fraction fluorescent probe displaced, Screen",MDM2; Acid 91,0.0563
same,"fraction fluorescent probe displaced, Replicate",MDM2; Acid 91,0.04
O=C1NCCSSCCC(=O)N2CCN(C(=O)C=Cc3ccccc3)CC2C(=O)NC(Cc2c[nH]c3ccccc23)C(=O)N2CCCC1C2 (centres unmarked) [X D7 W B4 Acid 91],"fraction fluorescent probe displaced, Screen",MDM2; Acid 91,0.03
same,"fraction fluorescent probe displaced, Replicate",MDM2; Acid 91,0.04
O=C1NCCSSCCC(=O)N2CCC[C@H]2C(=O)N[C@@H](CNC(=O)C2(c3ccccc3)CCCCC2)C(=O)N[C@H]1Cc1c[nH]c2ccccc12 [X-B1-D3-W + A98] ([Mpa]P[Dap](X14)W-Cysteamide; disulfide 1-C),fraction fluorescent probe displaced,MDM2,0.6683
O=C1CCSSCCNC(=O)C2(CCN(C(=O)c3ccc(Cl)cc3)CC2)NC(=O)C(Cc2ccccc2)NC(=O)c2cccc(c2)CN1 (centres unmarked) [X B5 F D6 Acid 25],"fraction fluorescent probe displaced, Screen",MDM2; Acid 25,0.0244
same,"fraction fluorescent probe displaced, Replicate",MDM2; Acid 25,0.0465
O=C(COc1ccccc1)NC[C@@H]1NC(=O)[C@@H]2CCCN2C(=O)CCSSCCNC(=O)[C@H](Cc2c[nH]c3ccccc23)NC1=O [X-B1-D3-W + A13] ([Mpa]P[Dap](Phenoxyacetyl)W-Cysteamide; disulfide 1-C),fraction fluorescent probe displaced,MDM2,0.1956
O=C1CCSSCCNC(=O)C(Cc2c[nH]c3ccccc23)NC(=O)C2CC(NC(=O)c3ccc(Cl)s3)CN2C(=O)CCN1 (centres unmarked) [X B2 D5 W Acid 14],"fraction fluorescent probe displaced, Screen",MDM2; Acid 14,0.11
same,"fraction fluorescent probe displaced, Replicate",MDM2; Acid 14,0.17
O=C(NCC1NC(=O)C(Cc2c[nH]c3ccccc23)NC(=O)C2CCCN(C2)C(=O)CCSSCCNC1=O)c1ccc(Cl)cc1 (centres unmarked) [X B4 W D3 Acid 25],"fraction fluorescent probe displaced, Screen",MDM2; Acid 25,0.09
same,"fraction fluorescent probe displaced, Replicate",MDM2; Acid 25,0.22
O=C1CCSSCCNC(=O)[C@H](CNC(=O)c2ccc(Cl)s2)NC(=O)[C@H]2CCCN(C2)C(=O)[C@H](Cc2ccccc2)N1 [X F B4 D3 Acid 14],"fraction fluorescent probe displaced, Screen",MDM2; Acid 14,0.23
same,"fraction fluorescent probe displaced, Replicate",MDM2; Acid 14,0.17
O=C(NC[C@@H]1NC(=O)[C@@H]2CCCN2C(=O)CCSSCCNC(=O)[C@H](Cc2ccccc2)NC1=O)c1ccc(Cl)cc1 [X B1 D3 F Acid 25] ([Mpa]P[Dap](Benzoyl(4-Cl))F-Cysteamide; disulfide 1-C),"fraction fluorescent probe displaced, Screen",MDM2; Acid 25,0.22
same,"fraction fluorescent probe displaced, Replicate",MDM2; Acid 25,0.22
CC(C)CCC(=O)NC[C@@H]1NC(=O)[C@@H]2CCCN2C(=O)CCSSCCNC(=O)[C@H](Cc2ccccc2)NC1=O [X-B1-D3-F + A68] ([Mpa]P[Dap](Pentanoyl(4-Me))F-Cysteamide; disulfide 1-C),fraction fluorescent probe displaced,MDM2,-0.1369
COC(=O)CCC(=O)NC[C@@H]1NC(=O)[C@@H]2CCCN2C(=O)CCSSCCNC(=O)[C@H](Cc2ccccc2)NC1=O [X-B1-D3-F + A93] ([Mpa]P[Dap](MeOSuc)F-Cysteamide; disulfide 1-C),fraction fluorescent probe displaced,MDM2,0.05512
O=C(/C=C/c1ccccc1)NC[C@@H]1NC(=O)[C@H](Cc2c[nH]c3ccccc23)NC(=O)CCSSCCNC(=O)[C@H]2CCCN(C2)C1=O [X W D3 B4 Acid 91],"fraction fluorescent probe displaced, Screen",MDM2; Acid 91,0.35
same,"fraction fluorescent probe displaced, Replicate",MDM2; Acid 91,0.07
O=C1CCSSCCNC(=O)C(Cc2c[nH]c3ccccc23)NC(=O)C2CN(C(=O)C=Cc3ccccc3)CCN2C(=O)CCN1 (centres unmarked) [X B2 D7 W Acid 91],"fraction fluorescent probe displaced, Screen",MDM2; Acid 91,0.14
same,"fraction fluorescent probe displaced, Replicate",MDM2; Acid 91,0.07
O=C1CCSSCCNC(=O)C2CC(NC(=O)c3ccc(Cl)s3)CN2C(=O)C2CCCN(C2)C(=O)C(Cc2ccccc2)N1 (centres unmarked) [X F B4 D5 Acid 14],"fraction fluorescent probe displaced, Screen",MDM2; Acid 14,0.08
same,"fraction fluorescent probe displaced, Replicate",MDM2; Acid 14,0.0465
Cc1cc(C(=O)NC[C@@H]2NC(=O)[C@@H]3CCCN3C(=O)CCSSCCNC(=O)[C@H](Cc3ccccc3)NC2=O)no1 [X-B1-D3-F + A3] ([Mpa]P[Dap](Isoxazole3carbonyl(5-Me))F-Cysteamide; disulfide 1-C),fraction fluorescent probe displaced,MDM2,0.08125
O=C1NCCSSCCC(=O)N2CCCC2C(=O)N2CCN(C(=O)c3ccc(Cl)cc3)CC2C(=O)NC1Cc1c[nH]c2ccccc12 (centres unmarked) [X B1 D7 W Acid 25],"fraction fluorescent probe displaced, Screen",MDM2; Acid 25,0.09
same,"fraction fluorescent probe displaced, Replicate",MDM2; Acid 25,0.10
O=C(/C=C/c1ccccc1)N[C@H]1C[C@H]2C(=O)N[C@@H](Cc3c[nH]c4ccccc34)C(=O)NCc3cccc(c3)C(=O)NCCSSCCC(=O)N2C1 [X D5 W B5 Acid 91],"fraction fluorescent probe displaced, Screen",MDM2; Acid 91,-0.05
same,"fraction fluorescent probe displaced, Replicate",MDM2; Acid 91,0.0168
O=C1CCSSCCNC(=O)[C@H](Cc2c[nH]c3ccccc23)NC(=O)[C@H]2CCCN(C2)C(=O)C2(CCN(C(=O)c3ccc(Cl)s3)CC2)N1 [X D6 B4 W Acid 14],"fraction fluorescent probe displaced, Screen",MDM2; Acid 14,0.17
same,"fraction fluorescent probe displaced, Replicate",MDM2; Acid 14,0.25
